Measurements as given in patent US20220132846A1, “1-PYRIDYL-PYRAZOLYL AMIDE COMPOUNDS AND PREPARATION AND USES THEREOF” (HUNAN RESEARCH INSTITUTE OF CHEMICAL INDUSTRY CO., LTD., priority 2019, published 2022).

Columns and labels:
[1] = tested on: Armyworm (Mythimna separata (Walker)); experiment: Test against armyworm, Potter tower method; format: in vivo; conditions: for mortality at 12.5 µg/mL / mortality at 50 µg/mL / mortality at 500 µg/mL: Mythimna separata, third-instar larvae, after 72 hours, read-out: Activity (mortality) level against armyworm; for mortality at 12.5 µg/mL: 12.5 mg/L; for mortality at 50 µg/mL: 50 mg/L; for mortality at 500 µg/mL: 500 mg/L; for Activity against armyworm, further screening (in words): compared with chlorantraniliprole (D1)
Description: Potter tower method: the test compound was dissolved in an appropriate solvent such as N,N-dimethylformamide, and then diluted with 0.2% aqueous solution of Tween 80 to the desired concentration, Those without the test compounds were set as blank controls. The fresh and tender corn leaves were taken and cut into fragments of basically the same size, then put into a Petri dish (diameter 90 mm) padded with filter paper in advance. Ten third-instar larvae of test insects were transferred into the dish and then placed under the Potter spray tower for being sprayed, each concentration treatment was sprayed at the amount of 1 mL and replicated 3 times. The dish was covered and then placed in a chamber for culture and observed regularly, after 72 hours, the dead insects was investigated and recorded and the mean mortality was calculated. […]

[2] = tested on: Aphis fabae; experiment: Test against aphid, leaf dip method (Aphis fabae); format: in vivo; conditions: foliar; for mortality at 12.5 µg/mL: 12.5 mg/L; for mortality at 12.5 µg/mL / mortality at 50 µg/mL / mortality at 200 µg/mL / mortality at 500 µg/mL: after 24 hours, read-out: Activity (mortality) level against Aphis fabae; for mortality at 50 µg/mL: 50 mg/L; for mortality at 200 µg/mL: 200 mg/L; for mortality at 500 µg/mL: 500 mg/L
Description: For evaluating the activity of the compounds of this invention against Homoptera pests, Aphis fabae, wheat aphids, etc. were selected as the test insects, and the activity of the compounds of this invention against aphids was measured by leaf dip method indoors.
Leaf dip method (Aphis fabae): the test compound was dissolved in an appropriate solvent such as N,N-dimethylformamide, and then diluted with 0.2% aqueous solution of Tween 80 to the desired concentration, Those without the test compounds were set as blank controls, the treatments were replicated 3 times. Horsebean seedlings with no less than twenty 3-day-old Aphis fabae per plant was cut from the stem, 5 horsebean seedlings with the insects were dipped in the test solution for 5 seconds, then inserted into a sponge filled with water after sucked dry using filter paper, then covered with a glass tube and placed in a chamber for culture. After 24 hours, the number of living and dead insects were investigated and the results were averaged. […]

Row | Structure (SMILES) | mortality at 12.5 µg/mL [1] [%] | mortality at 50 µg/mL [1] [%] | mortality at 500 µg/mL [1] [%] | mortality at 12.5 µg/mL [2] [%] | mortality at 50 µg/mL [2] [%] | mortality at 200 µg/mL [2] [%] | mortality at 500 µg/mL [2] [%] | Activity against armyworm, further screening (in words) [1] | LC50 ([2]; read-out: LC50 against Aphis fabae) [µg/mL]
1 | CCCNC(=O)c1cc(Cl)cc(Cl)c1N(C)C(=O)c1cc(Br)nn1-c1ncccc1Cl [Compound 3, N-[2,4-dichloro-6-[(propylamino)carbonyl]phenyl]-N-methyl-1-(3-chloro-2-pyridinyl)-3-bromo-1H-pyrazole-5-carboxamide] | 90 to 100 | 90 to 100 | 90 to 100 | 90 to 100 | 90 to 100 | 90 to 100 | 90 to 100 | – | –
2 | CC(C)NC(=O)c1cc(Cl)cc(Cl)c1N(C)C(=O)c1cc(Br)nn1-c1ncccc1Cl [Compound 5, N-[2,4-dichloro-6-[(isopropylamino)carbonyl]phenyl]-N-methyl-1-(3-chloro-2-pyridinyl)-3-bromo-1H-pyrazole-5-carboxamide] | 90 to 100 | 90 to 100 | 90 to 100 | 90 to 100 | 90 to 100 | 90 to 100 | 90 to 100 | excellent activity | –
3 | CN(C(=O)c1cc(Br)nn1-c1ncccc1Cl)c1c(Cl)cc(Cl)cc1C(=O)NC1CC1 [Compound 6, N-[2,4-dichloro-6-[(cyclopropylamino)carbonyl]phenyl]-N-methyl-1-(3-chloro-2-pyridinyl)-3-bromo-1H-pyrazole-5-carboxamide] | 90 to 100 | 90 to 100 | 90 to 100 | 90 to 100 | 90 to 100 | 90 to 100 | 90 to 100 | – | –
4 | CCCCNC(=O)c1cc(Cl)cc(Cl)c1N(C)C(=O)c1cc(Br)nn1-c1ncccc1Cl [Compound 7, N-[2,4-dichloro-6-[(butylamino)carbonyl]phenyl]-N-methyl-1-(3-chloro-2-pyridinyl)-3-bromo-1H-pyrazole-5-carboxamide] | – | 90 to 100 | 90 to 100 | – | 90 to 100 | 90 to 100 | 90 to 100 | – | –
5 | CC(C)N(C)C(=O)c1cc(Cl)cc(Cl)c1N(C)C(=O)c1cc(Br)nn1-c1ncccc1Cl [Compound 13, N-[2,4-dichloro-6-[(methyl(isopropyl)amino)carbonyl]phenyl]-N-methyl-1-(3-chloro-2-pyridinyl)-3-bromo-1H-pyrazole-5-carboxamide] | – | 90 to 100 | 90 to 100 | 90 to 100 | 90 to 100 | 90 to 100 | 90 to 100 | – | –
6 | CN(C(=O)c1cc(Br)nn1-c1ncccc1Cl)c1c(Cl)cc(Cl)cc1C(=O)N(C)C1CC1 [Compound 14, N-[2,4-dichloro-6-[(methyl(cyclopropyl)amino)carbonyl]phenyl]-N-methyl-1-(3-chloro-2-pyridinyl)-3-bromo-1H-pyrazole-5-carboxamide] | 90 to 100 | 90 to 100 | 90 to 100 | 90 to 100 | 90 to 100 | 90 to 100 | 90 to 100 | excellent activity | –
7 | CCCN(CCC)C(=O)c1cc(Cl)cc(Cl)c1N(C)C(=O)c1cc(Br)nn1-c1ncccc1Cl [Compound 16, N-[2,4-dichloro-6-[(dipropylamino)carbonyl]phenyl]-N-methyl-1-(3-chloro-2-pyridinyl)-3-bromo-1H-pyrazole-5-carboxamide] | – | 90 to 100 | 90 to 100 | 90 to 100 | 90 to 100 | 90 to 100 | 90 to 100 | – | –
8 | CCN(C(=O)c1cc(Br)nn1-c1ncccc1Cl)c1c(Cl)cc(Cl)cc1C(=O)N(C)C [Compound 17, N-[2,4-dichloro-6-[(dimethylamino)carbonyl]phenyl]-N-ethyl-1-(3-chloro-2-pyridinyl)-3-bromo-1H-pyrazole-5-carboxamide] | 90 to 100 | 90 to 100 | 90 to 100 | 90 to 100 | 90 to 100 | 90 to 100 | 90 to 100 | – | –
9 | CCN(C)C(=O)c1cc(Cl)cc(Cl)c1N(CC)C(=O)c1cc(Br)nn1-c1ncccc1Cl [Compound 18, N-[2,4-dichloro-6-[(methyl(ethyl)amino)carbonyl]phenyl]-N-ethyl-1-(3-chloro-2-pyridinyl)-3-bromo-1H-pyrazole-5-carboxamide] | – | 90 to 100 | 90 to 100 | 90 to 100 | 90 to 100 | 90 to 100 | 90 to 100 | – | –
10 | CCCN(C(=O)c1cc(Br)nn1-c1ncccc1Cl)c1c(Cl)cc(Cl)cc1C(=O)N(C)C [Compound 19, N-[2,4-dichloro-6-[(dimethylamino)carbonyl]phenyl]-N-propyl-1-(3-chloro-2-pyridinyl)-3-bromo-1H-pyrazole-5-carboxamide] | – | 90 to 100 | 90 to 100 | 90 to 100 | 90 to 100 | 90 to 100 | 90 to 100 | – | –
11 | CCCN(C)C(=O)c1cc(Cl)cc(Cl)c1N(CCC)C(=O)c1cc(Br)nn1-c1ncccc1Cl [Compound 20, N-[2,4-dichloro-6-[(methyl(propyl)amino)carbonyl]phenyl]-N-propyl-1-(3-chloro-2-pyridinyl)-3-bromo-1H-pyrazole-5-carboxamide] | – | 90 to 100 | 90 to 100 | – | – | 90 to 100 | 90 to 100 | – | –
12 | CN(C)C(=S)c1cc(Cl)cc(Cl)c1N(C)C(=O)c1cc(Br)nn1-c1ncccc1Cl [Compound 21, N-[2,4-dichloro-6-[(dimethylamino)thioxomethyl]phenyl]-N-methyl-1-(3-chloro-2-pyridinyl)-3-bromo-1H-pyrazole-5-carboxamide] | – | 90 to 100 | 90 to 100 | 90 to 100 | 90 to 100 | 90 to 100 | 90 to 100 | – | –
13 | CC(C)N(C)C(=S)c1cc(Cl)cc(Cl)c1N(C)C(=O)c1cc(Br)nn1-c1ncccc1Cl [Compound 22, N-[2,4-dichloro-6-[(methyl(isopropyl)amino)thioxomethyl]phenyl]-N-methyl-1-(3-chloro-2-pyridinyl)-3-bromo-1H-pyrazole-5-carboxamide] | 90 to 100 | 90 to 100 | 90 to 100 | 90 to 100 | 90 to 100 | 90 to 100 | 90 to 100 | – | –
14 | CCN(CC)C(=S)c1cc(Cl)cc(Cl)c1N(C)C(=O)c1cc(Br)nn1-c1ncccc1Cl [Compound 23, N-[2,4-dichloro-6-[(diethylamino)thioxomethyl]phenyl]-N-methyl-1-(3-chloro-2-pyridinyl)-3-bromo-1H-pyrazole-5-carboxamide] | 90 to 100 | 90 to 100 | 90 to 100 | – | – | 90 to 100 | 90 to 100 | – | –
15 | O=[N+]([O-])/N=C1\NCCN1Cc1ccc(Cl)nc1 [imidacloprid, reference compound] | – | – | – | – | – | – | – | – | < 1
